ChEMBL document CHEMBL1133423, “Synthesis, DNA binding, topoisomerases inhibition and cytotoxic properties of 4-arylcarboxamidopyrrolo-2-carboxyanilides” (Bioorg Med Chem Lett, 2000)

Tests used:
Nucleic Acid = experiment: Binding affinity of compound for calf thymus DNA was determined; type: nucleic-acid assay; details: Bos taurus
HL-60 = experiment: Antiproliferative activity of compound against HL60 leukemia cells; type: functional, cell-based; details: Homo sapiens

Compound: Cn1cc(NC(=O)c2ccc(CN)cc2)cc1C(=O)Nc1ccc(CN)cc1
- Ka (Nucleic Acid): 680000 M⁻¹
- IC50 (HL-60): 5.4 µM

Compound: NCc1ccc(NC(=O)c2cc(NC(=O)c3ccc(CN)cc3)c[nH]2)cc1
- Ka (Nucleic Acid): 950000 M⁻¹
- IC50 (HL-60): 1.7 µM

Compound: NCc1ccc(NC(=O)c2cc(NC(=O)c3ccc(CN)cc3)cn2Cc2ccccc2)cc1
- Ka (Nucleic Acid): 340000 M⁻¹
- IC50 (HL-60): 8.2 µM
